The record followed here is PubChem BioAssay (NCI).

Test systems include LOX IMVI melanoma; M14 melanoma; SK-MEL-2 melanoma; NCI-H226 lung; IGROV1 ovarian; NCI-H23 lung; SNB-75 CNS; HCC-2998 colon; RPMI-8226 leukemia; MCF7 breast.
Common to all, as to test: NCI anticancer screen, dose series, 48 h

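These data come from cells grown in 96-well plates and exposed to compound for 48 hours at five concentrations. GI50: concentration for 50% inhibition of growth. TGI denotes the concentration required for complete inhibition of growth.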

Regarding `CCOC(=O)C(Cc1ccc(N=NN(C)C)cc1)NC(=O)CC1c2ccccc2-c2ccccc21` (centres undefined), the TGI in the assay with LOX IMVI melanoma, in the assay with M14 melanoma, with SK-MEL-2 melanoma, in the assay with NCI-H226 lung, with IGROV1 ovarian and with NCI-H23 lung was greater than 100 µM in each case. In addition, the TGI in the assay on SNB-75 CNS, with HCC-2998 colon and with RPMI-8226 leukemia was greater than 100 µM each time.

Turning to `COC(=O)Nc1cc(OCCCOC(C)=O)c2[nH]c(C(=O)OC)cc2c1C[C@H](O)CO`, the TGI in the assay on LOX IMVI melanoma, with M14 melanoma, in the assay on SK-MEL-2 melanoma, with NCI-H226 lung, in the assay with IGROV1 ovarian and with NCI-H23 lung was greater than 100 µM throughout. Besides, the TGI with HCC-2998 colon, with RPMI-8226 leukemia and in the assay on MCF7 breast was greater than 100 µM in each case.

Consider `CC(=O)O[C@H]1CC[C@@H](OC(C)=O)[C@H]2[C@H](O)[C@H](O)[C@@H]1n1c(=O)n(-c3ccccc3)c(=O)n12`, for which the TGI in the assay on LOX IMVI melanoma, in the assay on M14 melanoma, in the assay on SK-MEL-2 melanoma, in the assay with NCI-H226 lung, in the assay on IGROV1 ovarian and in the assay on NCI-H23 lung was greater than 100 µM throughout. For the same molecule, the TGI in the assay with RPMI-8226 leukemia and with MCF7 breast was greater than 100 µM each time.

`NCCCNc1nc2ccccc2c2c(=O)c3cc(Cl)ccc3sc12`: the GI50 with SK-MEL-2 melanoma was 1.99 µM; in the assay with NCI-H226 lung it was 8.54 µM; with SNB-75 CNS, 1.4 µM. For the same molecule, the TGI came out at 3.69 µM in the assay with SK-MEL-2 melanoma, 74.2 µM in the assay with NCI-H226 lung and 2.79 µM in the assay with SNB-75 CNS.

Take `COC1=C(OC)C(=O)C(Cc2c(Cl)nc3sccn23)=C(C)C1=O`: the TGI with LOX IMVI melanoma came out at 10.4 µM; in the assay on M14 melanoma, 24.3 µM; with SK-MEL-2 melanoma it was 38.7 µM; in the assay on IGROV1 ovarian it was 29.1 µM; in the assay on NCI-H23 lung it was 29.2 µM; in the assay on HCC-2998 colon, 32.1 µM. The TGI was 15.7 µM in the assay with RPMI-8226 leukemia and 26.8 µM with MCF7 breast.

`Cc1nc(C(=Nc2ccc(Br)cc2)Nn2cnnc2)no1`: the TGI in the assay on M14 melanoma, with SK-MEL-2 melanoma, in the assay on IGROV1 ovarian, in the assay on NCI-H23 lung, in the assay on SNB-75 CNS and with HCC-2998 colon was greater than 100 µM each time. Also, the TGI with RPMI-8226 leukemia and with MCF7 breast was greater than 100 µM each time.

Take `C/C(CCN(C)C)=N/O`: the TGI in the assay with LOX IMVI melanoma was determined as 16.3 µM; with M14 melanoma it was 21.9 µM; in the assay on SK-MEL-2 melanoma it was 31.5 µM; with NCI-H226 lung it was 63.9 µM; in the assay on IGROV1 ovarian it was 39.2 µM; in the assay with NCI-H23 lung, 25.5 µM. The figures for the TGI with SNB-75 CNS, with HCC-2998 colon and in the assay on RPMI-8226 leukemia were 33 µM, 25.2 µM and 11.4 µM, respectively.

As for `Cc1ccc(S(=O)(=O)OCCN(CCOS(=O)(=O)c2ccc(C)cc2)c2ccc(C=O)cc2)cc1`, the TGI in the assay on LOX IMVI melanoma was greater than 100 µM; with M14 melanoma, greater than 100 µM; in the assay with SK-MEL-2 melanoma, 40.1 µM; in the assay with IGROV1 ovarian, greater than 100 µM; with NCI-H23 lung, greater than 100 µM; with HCC-2998 colon, 85.5 µM. Further, the TGI with RPMI-8226 leukemia was greater than 100 µM; in the assay with MCF7 breast, 92.9 µM.

Consider `Cc1ccc(S(=O)(=O)N/N=c2/sc3ccccc3n2C)cc1`, for which the TGI in the assay with LOX IMVI melanoma, in the assay with SK-MEL-2 melanoma, in the assay with NCI-H226 lung, in the assay with IGROV1 ovarian, in the assay with NCI-H23 lung and in the assay with SNB-75 CNS was greater than 100 µM throughout. Besides, the TGI in the assay with HCC-2998 colon and with RPMI-8226 leukemia was greater than 100 µM throughout.

In the case of `CC(C)C(NCc1c2ccccc2[n+](C)c2ccccc12)C(=O)O` (centres undefined), the TGI came out at 17.3 µM in the assay on LOX IMVI melanoma; 16 µM in the assay on M14 melanoma; 17 µM in the assay with SK-MEL-2 melanoma; 38.6 µM in the assay with NCI-H226 lung; 25.5 µM in the assay on IGROV1 ovarian; 27.2 µM in the assay on NCI-H23 lung. The TGI in the assay with SNB-75 CNS came to 18 µM; in the assay with HCC-2998 colon it was 29.3 µM; in the assay on RPMI-8226 leukemia it was 5.15 µM.

On to `CN(C)c1cccc2c(S(=O)(=O)NCCN)cccc12`, for which the TGI with LOX IMVI melanoma is greater than 100 µM; in the assay on M14 melanoma, greater than 100 µM; in the assay with SK-MEL-2 melanoma, greater than 100 µM; in the assay on NCI-H226 lung, greater than 100 µM; in the assay with IGROV1 ovarian, 91.9 µM; with NCI-H23 lung, greater than 100 µM. For the same molecule, the TGI was 64.1 µM with SNB-75 CNS and greater than 100 µM in the assay with HCC-2998 colon.

For the molecule `[N-]=[N+]=CC(=O)C1CCN(c2ccccc2)C1=O` (centres undefined), the TGI with LOX IMVI melanoma, with M14 melanoma, in the assay with SK-MEL-2 melanoma, with NCI-H226 lung, in the assay with IGROV1 ovarian and with NCI-H23 lung was greater than 10 µM throughout. The TGI with HCC-2998 colon, with RPMI-8226 leukemia and with MCF7 breast was greater than 10 µM throughout.

`CN1C(c2ccccc2)CC(O)CC1c1ccccc1` (centres undefined): the TGI in the assay with LOX IMVI melanoma, in the assay with M14 melanoma, with SK-MEL-2 melanoma, with NCI-H226 lung, in the assay with IGROV1 ovarian and in the assay on NCI-H23 lung was greater than 100 µM each time. In addition, the TGI with SNB-75 CNS and in the assay with RPMI-8226 leukemia was greater than 100 µM each time.

Take `O=C(N/N=C/c1ccccc1)c1c(F)c(F)c(F)c(F)c1F`: the TGI in the assay on LOX IMVI melanoma, with M14 melanoma, with SK-MEL-2 melanoma, with NCI-H226 lung, in the assay on IGROV1 ovarian and with NCI-H23 lung was greater than 100 µM in each case. Moreover, the TGI in the assay with SNB-75 CNS, in the assay on HCC-2998 colon and in the assay on RPMI-8226 leukemia was greater than 100 µM throughout.

For `O=S(Nc1ccccc1)c1ccc(Cl)cc1` (centres undefined), the TGI in the assay with LOX IMVI melanoma, in the assay on M14 melanoma, in the assay with SK-MEL-2 melanoma, in the assay with NCI-H226 lung, in the assay on IGROV1 ovarian and in the assay on NCI-H23 lung was greater than 100 µM throughout. For the same molecule, the TGI in the assay on HCC-2998 colon, with RPMI-8226 leukemia and in the assay with MCF7 breast was greater than 100 µM in each case.

For the molecule `CCOC(=O)CNC(=O)c1[nH]cnc1/N=N/N(C)C`, the TGI in the assay with LOX IMVI melanoma, in the assay with M14 melanoma, with SK-MEL-2 melanoma, with NCI-H226 lung, in the assay with IGROV1 ovarian and in the assay with NCI-H23 lung was greater than 100 µM throughout. Also, the TGI with SNB-75 CNS, in the assay with HCC-2998 colon and with RPMI-8226 leukemia was greater than 100 µM each time.
